Assays:
Format in all cases: physicochemical
[1] = Stability of acidified formoterol/BDP-HFA 134a solutions in cans coated with a fluorocarbon polymer; conditions: HFA 134a/12% ethanol/0.4% isopropyl myristate, 3.25 μl 1.0 M HCl
From the text: (§1) Each value is expressed as percent nominal drug concentration.

[2] = Stability of acidified TA 2005-HFA 134a solutions in cans coated with a fluorocarbon polymer
[3] = as above; conditions: for stability (in words): almost three months at 50° C.
From the text: as §1

[4] = Effect of hydrochloric acid on solution pH′ (acidity function) in model vehicle HFA 43-10MEE (Vertrel XF); conditions: titrated with a strong acid in model vehicle HFA 43-10MEE (Vertrel XF)
Procedure: The meter reading represents an apparent pH or acidity function (pH′).
(a) 1.0 M hydrochloric acid was added incrementally to 50 mL of HFA 43-10MEE (Vertrel XF) containing 20% w/w ethanol and pH′ measured after each aliquot of acid.

percent nominal drug concentration ([1]; 4° C., 64 days inverted) [percent nominal] | percent nominal drug concentration ([1]; 4° C., 123 days inverted) [percent nominal] | percent nominal drug concentration ([1]; Initial) [percent nominal] | apparent pH ([2]; 1.0 μl 0.08 M hydrochloric acid per can, 3.5 μg/50 μl in HFA 134a/12% ethanol/1.0% isopropyl myristate) | apparent pH ([2]; 1.4 μl 0.08 M hydrochloric acid per can) | apparent pH ([2]; 1.8 μl 0.08 M hydrochloric acid per can) | percent nominal drug concentration ([3]; 1.0 μl 0.08 M HCl per can (apparent pH about 4.8), 50° C., 22 days upright) [percent nominal] | percent nominal drug concentration ([3]; 1.0 μl 0.08 M HCl per can (apparent pH about 4.8), 50° C., 83 days upright) [percent nominal] | percent nominal drug concentration ([3]; 1.0 μl 0.08 M HCl per can (apparent pH about 4.8), Initial, HFA 134a/12% ethanol/1.0% isopropyl myristate, coated cans) [percent nominal] | percent nominal drug concentration ([3]; 1.4 μl 0.08 M HCl per can (apparent pH about 3.2), 50° C., 22 days upright) [percent nominal] | percent nominal drug concentration ([3]; 1.4 μl 0.08 M HCl per can (apparent pH about 3.2), 50° C., 83 days upright) [percent nominal] | percent nominal drug concentration ([3]; 1.4 μl 0.08 M HCl per can (apparent pH about 3.2), Initial) [percent nominal] | percent nominal drug concentration ([3]; 1.8 μl 0.08 M HCl per can (apparent pH about 2.9), 50° C., 22 days upright) [percent nominal] | percent nominal drug concentration ([3]; 1.8 μl 0.08 M HCl per can (apparent pH about 2.9), 50° C., 83 days upright) [percent nominal] | percent nominal drug concentration ([3]; 1.8 μl 0.08 M HCl per can (apparent pH about 2.9), Initial) [percent nominal] | stability (in words) ([3]; apparent pH between 3.0 and 5.0, stable = much less than 10% loss of drug) | stability (in words) ([3]; apparent pH of less than 3) | pH′ down to which the titration profile is shallow, thereafter the acidity function drops abruptly [4] | SMILES
100.10 | 102.6 | 99.4 |  |  |  |  |  |  |  |  |  |  |  |  |  |  |  | CCC(=O)OCC(=O)[C@@]1(OC(=O)CC)[C@@H](C)C[C@H]2[C@@H]3CCC4=CC(=O)C=C[C@]4(C)[C@@]3(Cl)[C@@H](O)C[C@@]21C [BDP, beclometasone dipropionate]
 |  |  | about 4.8 | ~3.2 | ~2.9 | 98.3 | 99.4 | 100.0 | 98.2 | 98.8 | 100.0 | 90.2 | 88.1 | 100.0 | stable | not | ~5.0 | COc1ccc(C[C@@H](C)NC[C@H](O)c2ccc(O)c3[nH]c(=O)ccc23)cc1 [TA 2005, 8-hydroxy-5-[(1R)-1-hydroxy-2-[[(1R)-2-(4-methoxyphenyl)-1-methylethyl]amino]ethyl]-2(1H)-quinolinone]

Reference: patent US7018618B2, “Stable pharmaceutical solution formulations for pressurized metered dose inhalers” (Chiesi Farmaceutici S.p.A., priority 2000, dated 2006)
